In publication PMC8465649, “Semaphorin 3A—Glycosaminoglycans Interaction as Therapeutic Target for Axonal Regeneration” (Pharmaceuticals, 2021):
Blank lines part the entries; values can stand above or below the molecule they belong to. Ends that are not written are not given here.

Tests used:
[1] = Heparin affinity chromatography (NaCl gradient elution); format: binding
Protocol: Figure 3 SPR sensorgrams of increasing amounts (0 to 1 μM) of the SCTWT construct flown over (HBS-T buffer) (a) immobilized biotinylated heparin (350 RU) (b) CD Spectra of 5 μM Sema3A C-terminal region in the absence (blue) and the presence of 1 μM UFH (orange), measured at pH 5.5 in 10 mM NaP. […] SCTWT was loaded onto a HiTrap Heparin column equilibrated with […] (pH 7.5), and eluted with a linear gradient to 2 M NaCl. Left ordinate axis, absorbance; righ ordinate axis, % NaCl (% B).
A prepacked 1-mL HiTrap Heparin HP affinity column (GE Healthcare) was used on a AKTA purifier system to perform heparin affinity chromatography. Then, 100 μL of SCT samples at ~100 μM were injected and run at 1 mL/min in a linear gradient with buffer A = 10 mM Tris-HCl, pH = 7.5 and buffer B = 10 mM Tris-HCl, 2M NaCl, pH = 7.5.

[2] = SPR binding to immobilized biotinylated CS-A
Protocol: (§1) The interaction between Sema3A basic tail and GAGs was analyzed using several methods: chromatographic elution as a function of NaCl concentration based on affinity to a heparin sepharose column, surface plasmon resonance (SPR), NMR [52], and molecular dynamics simulations. Firstly, we observed that SCTWT binds to a heparin-Sepharose column and the protein is only released at about 1M NaCl (>50% of buffer B, Figure 3c), similar to the widely reported antithrombin–heparin interaction, indicating a SCTWT-heparin high-affinity, in the 10^−7–10^−9 M range [54]. Next, SPR measurements were performed to characterize protein–heparin binding kinetics. […]
(§2) All SPR experiments were performed on a Biacore T-100 instrument (Cytiva, formally GE Healthcare, Marlborough, MA, USA) in HBS-T buffer (10 mM HEPES, 150 mM NaCl, 0.05% Tween-20, pH 7.5) at 25 °C. […] The SPR experiments were performed in duplicate and the dissociation constant (Kd) values and binding levels are expressed as the mean and standard deviation from the individual experiments.

[3] = NMR competition (WaterLOGSY / spin-lock filtered 1H): displacement of FS2/FS3 peptides from heparin agarose resin; format: binding; conditions: pH 7.5; for displacement of FS3 peptide from heparin agarose resin: spin-lock filtered 1D 1H NMR, 1 mM peptide, 1 mM peptoid
Protocol: NMR competition experiments involved the acquisition of 1D-^1H WaterLOGSY or spin-lock filtered NMR spectra. Thus, FS2 peptide is displaced from heparin agarose resin by CSIC02 (1:1 peptoid/FS2, both 1 mM), but not by CSIC03 (Figure S15). […] We reasoned that if CSIC02 was able to interact with GAG and displace FS2/FS3 basic peptides, it may also interfere with SCTWT–heparin interaction. To investigate if CSIC02 could displace SCTWT from heparin dp14 and to define the SCTWT residues affected, 2D NMR ^1H-^15N HSQC CSP experiments were used. Figure 8a illustrates the chemical shift effects of CSIC02 addition to a sample of SCTWT containing dp14 heparin. […] In Figure 8b, we display the chemical shift perturbation of SCTWT NMR spectra in the presence of dp14 and CSIC02. Thus, as the two CSP plots in Figure 4b and Figure 8b were calculated using as reference SCTWT alone in solution, we can compare them directly. […] Moreover, splitting of signals for some residues (R733, R734, and Q735 in the first GAG-binding region) was observed (Figure 8c). This observation is compatible with the presence of different species in slow chemical exchange in solution, with partial detachment of SCTWT from heparin. The amount of CSIC02 used in these experiments can be rationalized considering that the SCTWT has ca. 12 positive charges at neutral pH (Figure S18), while CSIC02 is tricationic. Since the binding is mediated by ionic polar interactions, a large excess of CSIC02 is needed to counterbalance the SCTWT-dp14 binding.
Next, 1D ^1H T1ρ relaxation filtered and WaterLOGSY NMR experiments were acquired at 25 °C on a 500-MHz spectrometer (Varian Inova; Agilent Technologies, Santa Clara, CA, USA) equipped with an AutoX inverse double-resonance probe with a z-shielded pulsed-field gradient coil. The samples were prepared in a 5-mm Wilmad NMR 528-PP tubes with 10 mM Tris-d11 (for peptide/GAG samples) and 150 mM NaCl dissolved in 90% H2O/10% D2O at pH 7.5. All spectra were obtained with a sweep width of 8 kHz and 16,384 acquired data points. The experiments were recorded using the standard pulse sequence in the (WLOGSY_ES) Chempack library, with excitation sculpting to suppress water resonances. For Water-LOGSY experiments, the first water-selective 180° pulse was 25 ms long. The spectra were acquired with 1200 transients and a spin-lock pulse of 50 ms at 3.7 kHz. To phase Water-LOGSY spectra correctly, it is necessary to use an internal reference compound. In our case, the reference is the residual ethanol absorbed/bonded in heparin-agarose resin (this interaction was previously confirmed with T1ρ filtered experiments), which appears as a positively phased signal. […]

[4] = tested on: Sema3A chemorepulsive activity; parameters: method as in PMID 19615921; conditions: cited from earlier work
[5] = Potentiometric titration (protonation state); format: physicochemical; conditions: 25 °C, 0.15 M NaCl
Protocol: UV absorbance was measured using a SpectraMax M5 spectrophotometer (Molecular Devices, Sunnyvale, CA, USA). The experiments were performed with a 10 μM methylene blue (MB) solution in 5 mM Tris-HCl buffer at pH 7.5, to which increasing amounts of heparin were added to saturation of the MB dye. For the competition assays, solutions of MB and heparin at fixed concentrations were titrated with increasing amounts of SICHI or CSIC02–04 peptoids. Then, the relative increase in absorbance at 665 nm, due to release of MB from the MB–heparin complex when adding either SICHI or CSIC02–04 to the cuvette, can be plotted vs. the charge ratio considering their respective concentrations and that all the peptoids have three positive charges, and heparin has four negative charges per disaccharide unit. With this information, the charge excess for 50% of displacement of the MB dye (CE50) for each compound can be calculated for comparison. Potentiometric titrations were carried out in a reaction vessel thermostated with a water bath at 25.0 ± 0.1 °C under nitrogen atmosphere, and 0.15 M NaCl was used as the supporting electrolyte. The titrant was delivered by a precision microburette. The potentiometric measurements were made with a pH-mV meter. The reference electrode was an Ag/AgCl electrode in saturated KCl solution. The acquisition of the emf data was performed with the computer program Tiamo 2.3.1. […]

[6] = tested on: Nrp1; parameters: method as in PMID 27028639; conditions: cited from earlier work
[7] = tested on: Sema3A; parameters: method as in PMID 27028639; conditions: cited from earlier work
[8] = SPR binding to immobilized biotinylated heparin; conditions: Table S3
Protocol: as §1
as §2, with “experiments. […]” for “experiments.”

[9] = biological target: the molecule itself; test: 1H-15N NMR spectra; 1H-15N NMR spectra of LCTWT acquired without and with reducing agent TCEP; monomer and dimer

Molecule: LCTWT: recombinant Sema3A C-terminal construct 716-771 incorporating the cysteine (NTMDEFCEQVWKRDRKQRRQRPGHTPGNSNKWKHLQENKKGRNRRTHEFERAPRSV; also: post-translational modification of the N-terminus, kind not given here)
- NaCl concentration at elution under reducing conditions ([1]; 5 mM DTT): ~ 0.92 M NaCl
- NaCl concentration at elution peak (single or major peak) ([1]; linear gradient to 2 M NaCl, Tris-HCl pH 7.5): ~ 1.12 M NaCl
- NaCl concentration at minor elution peak ([1]; linear gradient to 2 M NaCl, minor peak (monomeric form)): ~ 0.92 M NaCl

Molecule: SCTRR/QH: SCT construct bearing two mutations, R730Q and R733H (VWKRDQKQHRQRPGHTPGNSNKWKHLQENKKGRNRRTHEFERAPRSV; UniProt Q14563 725-771, looked up, variant R730Q R733H)
- elution of the mutated protein relative to SCTWT ([1]; heparin affinity chromatography): slightly earlier elution
- binding to CS-A ([2]; immobilized biotinylated CS-A): completely abrogated

Molecule: SCTWT: recombinant Sema3A C-terminal polybasic tail construct, residues 725–771 (VWKRDRKQRRQRPGHTPGNSNKWKHLQENKKGRNRRTHEFERAPRSV; UniProt Q14563 725-771, looked up, fragment)
- affinity for heparin versus CS-A ([2]; comparison of heparin and CS-A chips): higher affinity to heparin than to CS-A

Molecule: CCN(CC)CCNCC(=O)N(CCN1CCCC1)CC(=O)N(CCC1CCCN1C)CC(N)=O (stereo not drawn) [SICHI]
- in vitro effect on Sema3A chemorepulsive activity [4]: inhibition
- protonation state at neutral pH [5]: triprotonated
- binding to Nrp1 [6]: neither Sema3A or Nrp1 bind
- binding to Sema3A [7]: neither Sema3A or Nrp1 bind

Molecule: FS2: Sema3A C-terminal peptide 725-736, VWKRDRKQRRQR
- fold stronger affinity to heparin compared to NFS3 peptide [8]: 60 fold

B1: recombinant Sema3A C-terminal construct incorporating the cysteine (LCTWT, 716-771) (domain or fragment, human, UniProt Q14563 716-771, looked up)
chain: NTMDEFCEQVWKRDRKQRRQRPGHTPGNSNKWKHLQENKKGRNRRTHEFERAPRSV
modifications: also: post-translational modification of the N-terminus, kind not given here
notes: Semaphorin 3A (Sema3A), human, C-terminal region 716-771 with the cysteine (Cys722 as printed) between the Ig domain and the basic tail; The methods say that the SCT constructs were made without any fusion tag in E. coli BL21 (DE3) and purified by cation exchange and reverse phase; source: recombinant
- binding result [9]: binds

The remaining lines, values ahead:

- displacement of FS2 peptide from heparin agarose resin ([3]; WaterLOGSY, 1:1 peptoid/FS2, both 1 mM): not
- displacement of FS3 peptide from heparin agarose resin [3]: incapable to displace
Molecule: CCN(CC)CCNCC(=O)N(CCN1CCCC1)CC(=O)NCCC1CCCN1C (stereo not drawn) [CSIC03]

- displacement of FS3 peptide from heparin agarose resin [3]: incapable to displace
Molecule: CCN(CC)CCN(CC(=O)N(CCN1CCCC1)CC(=O)NCCC1CCCN1C)C(=O)OCc1ccccc1 (stereo not drawn) [CSIC04]
